# Assays:
# [1] = system: BHK cells expressing HRAS^G12V; assay: Western analysis of cell signaling in BHK cells expressing HRAS G12V; assay type: cell-based, hamster
# [2] = target: HRAS^WT (Homo sapiens, UniProt P01112); assay: MST binding to HRAS WT; conditions: GDP and GTP-bound forms
# [3] = target: NRAS^WT (Homo sapiens, UniProt P01111); assay: MST binding to NRAS WT; conditions: GDP and GTP-bound forms
# [4] = system: BHK cells expressing KRAS^G12V; assay: Western analysis of cell signaling in BHK cells expressing KRAS G12V; assay type: cell-based, hamster
# [5] = target: KRAS^G12D and RBD interaction (Homo sapiens, UniProt P01116, G12D); assay: FLIM-FRET of GFP-KRAS G12D with mCherry-RBD in BHK cells; assay type: cell-based, hamster; conditions: 1 μM compound for 2 h; ∼1.93 ns untreated, ∼2.3 ns without RBD
# [6] = system: oral cancer cells with or without mutant HRAS; assay: CyQUANT proliferation, oral cancer cells; assay type: cell-based; conditions: 5 μM compound, 72 h
# [7] = target: T1, KRAS and SOS (Homo sapiens, UniProt P01116); assay: SOS-mediated nucleotide; assay type: biochemical
# [8] = target: ^GDPKRAS^WT (Homo sapiens, UniProt P01116); assay: MST binding to GDP-bound KRAS WT; conditions: GDP state
# [9] = target: KRAS (Homo sapiens, UniProt P01116); assay: Intrinsic nucleotide; assay type: biochemical; conditions: 1 μM compound
# [10] = target: ^GDPKRAS^G12D (Homo sapiens, UniProt P01116, G12D); assay: MST binding to GDP-bound KRAS G12D; conditions: GDP state
# [11] = system: BHK cells expressing KRAS^G12D; assay: Western analysis of cell signaling in BHK cells expressing KRAS G12D; assay type: cell-based, hamster
# [12] = target: KRASWT (Homo sapiens, UniProt P01116); assay: Intrinsic nucleotide exchange; assay type: biochemical; conditions: 1 μM compound
# [13] = target: HRAS^G12V with Raf^RBD interaction (Homo sapiens, UniProt P01112, G12V); assay: FLIM-FRET of GFP-HRAS G12V with mCherry-RBD in BHK cells; assay type: cell-based, hamster; conditions: 1 μM compound
# [14] = target: KRAS^G12D–Raf^RBD interaction (Homo sapiens, UniProt P01116, G12D); assay: Pull-down of GFP-KRAS G12D by GST-Raf RBD in cell lysates; assay type: biochemical; conditions: 1 μM compound
# [15] = target: KRAS–Raf^RBD interaction (Homo sapiens, UniProt P01116); assay: Fluorescence polarization of KRAS binding to GST-Raf RBD; assay type: biochemical; conditions: 1 μM compound
# [16] = target: T2, Rap1b (Homo sapiens, UniProt P61224); assay: MST binding to control GTPase Rap1b; conditions: control RAS-related small GTPase
# T2 sequence (P61224 1-166): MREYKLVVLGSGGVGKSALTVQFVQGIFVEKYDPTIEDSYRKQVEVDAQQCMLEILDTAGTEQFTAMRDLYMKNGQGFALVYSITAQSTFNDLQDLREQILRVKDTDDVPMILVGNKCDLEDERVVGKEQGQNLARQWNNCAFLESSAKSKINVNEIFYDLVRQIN
# [17] = system: lung cancer cells harboring KRAS^G12D or KRAS^G12V; assay: CyQUANT proliferation, lung cancer cells with mutant KRAS; assay type: cell-based; conditions: 5 μM compound, 72 h
# [18] = system: lung cancer cells with wild-type KRAS; assay: CyQUANT proliferation, lung cancer cells with wild-type KRAS; assay type: cell-based; conditions: 5 μM compound, 72 h
# [19] = target: KRAS^G12D–cRaf interaction (Homo sapiens, UniProt P01116, G12D); assay: FLIM-FRET of GFP-KRAS G12D with RFP-cRaf; assay type: cell-based, hamster; conditions: 1 μM compound
# [20] = target: T1, KRAS and SOS; assay: SOS-mediated nucleotide exchange; assay type: biochemical; conditions: 1 μM compound
# NRAS^WT, sequence (P01111 1-166): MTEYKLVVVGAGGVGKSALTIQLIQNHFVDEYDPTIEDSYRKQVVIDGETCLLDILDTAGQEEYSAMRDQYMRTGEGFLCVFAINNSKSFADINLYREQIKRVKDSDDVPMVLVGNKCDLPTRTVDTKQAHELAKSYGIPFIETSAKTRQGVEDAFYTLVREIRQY
smiles,measurement,setting,value
"N#CC(=C(/N)Sc1ccccc1N)/C(C#N)=C(/N)Sc1ccccc1N [Compound U0126, reference compound]",effect on MAPK signaling,[1]; 10 μM,almost completely abolished
"Cc1nn2c(N3CCN(CCO)CC3)cc(-c3ccccc3)nc2c1-c1ccccc1 [Compound 11, 2-[4-(8-methyl-3,9-diphenyl-2,6,7-triazabicyclo[4.3.0]nona-2,4,7,9-tetraen-5-yl)piperazin-1-yl]ethanol]",binding detected by MST,[2],very weak or no binding
same,binding detected by MST,[3],very weak or no binding
same,effect on p-ERK and p-cRaf levels,[4],dose-dependently decreases
same,GFP fluorescence lifetime,[5],~2.02 ns
same,growth relative to DMSO control,[6],60–80%
same,effect on SOS-mediated nucleotide release rate,[7],only modestly decreased
same,maximum reduction in rate,[7]; 1 μM compound,≤ 5%
same,binding detected by MST,[8],very weak or no binding
same,maximum reduction in rate,[9],≤ 5%
same,binding detected by MST,[10],very weak or no binding
same,drop in p-ERK levels,"[11]; 1 μM, 3 h treatment",about 50%
same,reduction of p-ERK levels,"[11]; 5 μM, expanded concentration range",~50%
same,concentrations at which p-ERK levels decreased,[11]; primary western screen,≥ 1 µM
same,effect on p-AKT levels (AKT pathway signaling),[11]; western,inhibits signaling through the AKT pathway but to a lesser extent than the MAPK pathway
same,maximum reduction in rate,[12],≤ 5%
same,effect on interaction of HRAS^G12V with Raf^RBD,[13],opposite albeit small effect
same,decrease in GFP–KRAS^G12D levels pulled down,[14],> 50%
same,fold reduction of affinity of KRAS to Raf^RBD,[15],~13 fold
same,reduction of polarization (RAS–Raf^RBD interaction),[15]; at 2 μM GST–Raf^RBD,> 80%
same,binding detected by MST,[16],very weak or no binding
same,growth relative to DMSO control,[17],30–35%
same,growth relative to DMSO control,[18],60–80%
same,quenching of GFP fluorescence lifetime (KRAS^G12D–cRaf interaction),[19],significantly reduced
same,effect on p-AKT levels,[1]; western,no statistically significant effect
same,effect on p-ERK and p-cRaf levels,"[1]; western, ligand concentration range tested",less effect
same,maximum reduction in rate,[20],≤ 5%
